Assay results published in patent US9908848B2, “Amide derivatives of lactam based N-acylethanolamine acid amidase (NAAA) inhibitors” (The Regents of the University of California, priority 2013, dated 2018).

Columns and labels:
human NAAA = biological target: T1, human NAAA (Homo sapiens, UniProt Q02083); experiment: Fluorogenic h-NAAA assay; format: biochemical; conditions: recombinant HEK-hNAAA preparation
T1 construct: made in house; host or cells: HEK293 cells, stably transfected; soluble fraction after freeze/thaw
T1 sequence (Q02083 29-359): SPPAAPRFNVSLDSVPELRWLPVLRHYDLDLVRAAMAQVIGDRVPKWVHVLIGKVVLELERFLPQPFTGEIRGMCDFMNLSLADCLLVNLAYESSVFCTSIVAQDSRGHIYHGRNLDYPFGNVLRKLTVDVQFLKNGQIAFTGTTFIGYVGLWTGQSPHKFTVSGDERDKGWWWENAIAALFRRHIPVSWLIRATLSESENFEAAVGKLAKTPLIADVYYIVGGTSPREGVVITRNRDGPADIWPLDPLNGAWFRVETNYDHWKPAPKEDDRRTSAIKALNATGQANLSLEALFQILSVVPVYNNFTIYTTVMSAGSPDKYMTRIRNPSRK
Protocol: Hek293 cells stably transfected with the human NAAA coding sequence cloned from a human spleen cDNA library were used as enzyme source. Recombinant HEK-hNAAA pellets were resuspended in homogenizing buffer, and sonicated. Samples were centrifuged at 800×g for 15 min at 4° C. and the supernatants were ultracentrifuged at 12,000×g for 30 min at 4° C. The pellets were resuspended in PBS pH 7.4 on ice and subjected to a freeze/thaw cycle at −80° C. (two freeze/thaw cycles at −80° C. for Examples 34-37). The suspension was finally centrifuged at 105,000×g for 1 h at 4° C. Protein concentration was measured and samples stored at −80° C. until use.
The assay was run in Optiplate 96-wells black plates, in a total reaction volume of 200 μL. NAAA protein preparation (4.0 μg for Examples except 34-37, which were 20.0 μg) was pre-incubated for 10 min with various concentrations of test compounds or vehicle control (5% DMSO) in 100 mM citrate/phosphate buffer (pH 4.5) containing 3.0 mM DTT, 0.1% Triton X-100, 0.05% BSA, 150 mM NaCl. N-(4-methyl-2-oxo-chromen-7-yl)-hexadecanamide was used as a substrate (5.0 μM) and the reaction carried over for 30 min at 37° C. The samples were then read in a Perkin Elmer Envision plate reader using an excitation wavelength of 360 nm and emission 460 nm. IC50 values were calculated by non-linear regression analysis of log [concentration]/inhibition curves using GraphPad Prism 5 (GraphPad Software Inc., CA—USA) applying a standard slope curve fitting.

[1] = biological target: T2, Rat AC (r-AC), Acid Ceramidase (Rattus norvegicus, UniProt Q6P7S1); experiment: Rat AC (r-AC) assay, UPLC/MS; format: biochemical; conditions: read-out: r-AC UPLC/MS assay % inhib.
T2 construct: V5 (C); His (C); made in house; host or cells: HEK293 cells transfected with pEF6-rAC-V5/His, selected with G418; soluble fraction after freeze/thaw
T2 sequence (Q6P7S1 21-394): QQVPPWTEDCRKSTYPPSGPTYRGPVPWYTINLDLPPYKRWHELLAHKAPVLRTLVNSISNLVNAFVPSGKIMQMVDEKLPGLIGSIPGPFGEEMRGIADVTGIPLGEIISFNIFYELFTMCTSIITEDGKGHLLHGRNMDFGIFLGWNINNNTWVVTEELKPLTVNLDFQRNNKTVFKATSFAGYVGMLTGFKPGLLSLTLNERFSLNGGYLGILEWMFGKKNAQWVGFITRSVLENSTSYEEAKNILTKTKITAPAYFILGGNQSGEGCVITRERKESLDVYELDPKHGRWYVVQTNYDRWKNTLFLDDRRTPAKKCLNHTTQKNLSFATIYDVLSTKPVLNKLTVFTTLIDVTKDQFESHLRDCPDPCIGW
Protocol: The selectivity of selected compounds versus Acid Ceramidase (AC) was determined.
Rat AC (r-AC) was cloned from a brain cDNA library using primers based on the sequence obtained from the National Center for Biotechnology Information (NCBI) database: 5′rAC (5′-GACCATGCTGGGCCGTAGT-3′) (SEQ ID NO:1) and 3′rAC (5′-CCAGCCTATACAAGGGTCT-3′) (SEQ ID NO:2). The PCR (High Fidelity PCR Master, Roche) product was subcloned into a pEF6-V5/His vector (Invitrogen) to construct a mammalian expression vector encoding V5/His-tagged rat AC. HEK293 cells were transfected with pEF6-rAC-V5/His using Super-Fect reagent (Qiagen) and screened with G418 (0.3 mg/mL). Cells were suspended in 20 mM Tris HCl (pH 7.5) containing 0.32M sucrose, sonicated and centrifuged at 800×g for 15 min at 4° C. The supernatants were centrifuged again at 12,000×g for 30 min at 4° C. The pellets were suspended in phosphate-buffered saline (PBS) and subjected to 2 freeze-thaw cycles at −80° C. The suspensions were centrifuged at 105,000×g for 1 hour at 4° C. The supernatants containing recombinant AC were kept at −80° C. until use. Protein concentration was measured using the bicinchoninic acid (BCA) assay (Pierce). Recombinant rat AC (50 μg) was preincubated with inhibitors (final DMSO concentration 1%) in assay buffer (100 mM sodium phosphate, 0.1% Nonidet P-40, 150 mM NaCl, 3 mM DTT, 100 mM sodium citrate, pH 4.5) for 30 min at 37° C. Reactions were started by the addition of 100 μM N-lauroyl ceramide (Nu-Chek Prep, Elysian, Minn.) and carried on for 30 min at 37° C. Reactions were stopped by addition of a mixture of chloroform/methanol (2:1, vol/vol) containing 1 nmol of heptadecanoic acid (HDA; NuChek Prep). The organic phases were collected, dried under N2, and analyzed by LC-MS in the negative-ion mode using […] (HDA) as internal standard (m/z=199 for lauric acid, m/z=269 for HDA). HDA was eluted on an XDB Eclipse C18 column isocratically at 2.2 mL/min for 1 min with a solvent mixture of 95% methanol and 5% water, both containing 0.25% acetic acid and 5 mM ammonium acetate. The column temperature was 50° C. Electrospray ionization (ESI) was in the negative mode, capillary voltage as 4 kV, and fragmentor voltage was 100 V. N2 was used as drying gas at a flow rate of 13 L/min and a temperature of 350° C. Nebulizer pressure was set at 60 psi. We monitored […] in the selected-ion monitoring (SIM) mode using HDA as internal standard. Calibration curves were generated using commercial lauric acid (Nu-Chek Prep; m/z=199).

IC50 (human NAAA) | inhibition at 1 µM [1] | Structure (SMILES)
0.21 µM | 45% | O=C(CCCCCCC1CCCCC1)N[C@H]1CNC1=O [Example 30, 7-Cyclohexyl-N-[(3S)-2-oxoazetidin-3-yl]-heptanamide]
0.086 µM | 70% | CCCCCCCCCC(=O)N[C@H]1CNC1=O [Example 23, N-[(3S)-2-Oxoazetidin-3-yl]-decanamide]
